What was measured:
human mGlu2 receptor = biological target: T1, human mGlu2 receptor (Homo sapiens, UniProt Q14416); experiment: [35S]GTPγS binding assay (mGluR2 negative allosteric modulation, glutamate ~EC80 60 μM); format: biochemical; settings: for Emax: maximal % inhibition relative to the control glutamate response (EC80 glutamate), read-out: GTPγS-hmGluR2 anGT Emax; for IC50: membranes from CHO cells transfected with human mGlu2 receptor, glutamate ~EC80 (60 μM), pIC50 = −log IC50 (M), read-out: GTPγS-hmGluR2 anGT pIC50 (converted)
T1 construct: expressed in transfected cells; host or cells: CHO cells
T1 sequence (Q14416 19-872): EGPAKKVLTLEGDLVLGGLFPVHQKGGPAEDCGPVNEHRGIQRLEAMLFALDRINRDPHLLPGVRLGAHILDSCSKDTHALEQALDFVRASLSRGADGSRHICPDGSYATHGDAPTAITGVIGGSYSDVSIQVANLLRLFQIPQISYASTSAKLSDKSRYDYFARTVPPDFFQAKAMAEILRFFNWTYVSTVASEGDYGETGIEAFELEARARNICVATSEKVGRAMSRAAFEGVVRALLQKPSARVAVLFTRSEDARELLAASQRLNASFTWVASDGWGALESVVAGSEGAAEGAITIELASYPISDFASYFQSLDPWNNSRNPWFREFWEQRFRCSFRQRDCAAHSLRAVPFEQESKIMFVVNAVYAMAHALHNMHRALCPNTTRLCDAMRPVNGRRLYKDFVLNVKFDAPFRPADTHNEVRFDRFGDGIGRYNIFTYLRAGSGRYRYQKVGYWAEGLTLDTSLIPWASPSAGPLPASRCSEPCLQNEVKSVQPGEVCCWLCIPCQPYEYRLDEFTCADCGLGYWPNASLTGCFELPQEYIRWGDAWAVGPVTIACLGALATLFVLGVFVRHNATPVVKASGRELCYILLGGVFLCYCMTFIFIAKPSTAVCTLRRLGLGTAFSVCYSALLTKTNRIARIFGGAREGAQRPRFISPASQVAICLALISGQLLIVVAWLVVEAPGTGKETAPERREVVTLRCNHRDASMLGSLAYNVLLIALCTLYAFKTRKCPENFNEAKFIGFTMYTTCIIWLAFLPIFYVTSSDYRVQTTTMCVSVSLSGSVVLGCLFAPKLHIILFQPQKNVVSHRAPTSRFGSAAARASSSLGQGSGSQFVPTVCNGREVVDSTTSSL
Experimental: 1) [^35S]GTPγS Binding Assay
[^35S]GTPγS Binding Assay
Total reaction volume was 200 μl. […] Membrane-bound radioactivity was counted in a Topcount.

melting point | Emax (human mGlu2 receptor) | IC50 (human mGlu2 receptor) | Compound
278.58 °C | 104% | 1.12e-07 M | C[C@H]1CN(c2ccc(C(F)(F)F)cc2)C(=O)c2c(NC(=O)c3ccc(C(N)=O)cn3)cnn21 [Co. No. 82, N2-[(7S)-7-Methyl-4-oxo-5-[4-(trifluoromethyl)phenyl]-6,7-dihydropyrazolo[1,5-a]pyrazin-3-yl]pyridine-2,5-dicarboxamide]
277.42 °C | 101% | 1.12e-07 M | C[C@H]1CN(c2ccc(C(F)(F)F)cc2)C(=O)c2c(NC(=O)c3c[nH]cn3)cnn21 [Co. No. 83]
291.58 °C | 106% | 1.66e-07 M | C[C@H]1CN(c2ccc(C(F)(F)F)cc2)C(=O)c2c(NC(=O)c3ccc(C#N)cn3)cnn21 [Co. No. 85]
167.59 °C | 103% | 1.91e-07 M | C[C@H]1CN(c2ccc(C(F)(F)F)cc2)C(=O)c2c(NC(=O)c3cnn(C)c3)cnn21 [Co. No. 86]
135.05 °C | 103% | 2e-07 M | C[C@H]1CN(c2ccc(C(F)(F)F)cc2)C(=O)c2c(NC(=O)Cc3ccccc3)cnn21 [Co. No. 87]
231.1 °C | 99% | 2.24e-07 M | Cc1ncc(C(=O)Nc2cnn3c2C(=O)N(c2ccc(C(F)(F)F)cc2)C[C@@H]3C)cn1 [Co. No. 88]
285.92 °C | 100% | 2.45e-07 M | Cc1cc(C(=O)Nc2cnn3c2C(=O)N(c2ccc(C(F)(F)F)cc2)C[C@@H]3C)[nH]n1 [Co. No. 89]
162.27 °C | 101% | 3.47e-07 M | C[C@H]1CN(c2ccc(C(F)(F)F)cc2)C(=O)c2c(NC(=O)c3cncn3C)cnn21 [Co. No. 91]
272.72 °C | 98% | 4.57e-07 M | C[C@H]1CN(c2ccc(C(F)(F)F)cc2)C(=O)c2c(NC(=O)c3c[nH]c(N)n3)cnn21 [Co. No. 94, 2-Amino-N-[(7S)-7-methyl-4-oxo-5-[4-(trifluoromethyl)phenyl]-6,7-dihydropyrazolo[1,5-a]pyrazin-3-yl]-1H-imidazole-4-carboxamide]
153.01 °C | 111% | 3.16e-07 M | C[C@H]1CN(c2ccccc2)C(=O)c2c(NC(=O)c3ccnc(N)c3)cnn21 [Co. No. 97]
226.99 °C | 104% | 4.07e-09 M | COc1cc(N2C[C@H](C)n3ncc(NC(=O)c4cc(C)nc(C)c4)c3C2=O)ccc1C(F)(F)F [Co. No. 125]
148.36 °C | 108% | 5.62e-09 M | Cc1cc(C(=O)Nc2cnn3c2C(=O)N(c2ccc(C(F)(F)F)c(F)c2)C[C@@H]3C)cc(C)n1 [Co. No. 129]
134.44 °C | 107% | 7.41e-09 M | Cc1cc(C(=O)Nc2cnn3c2C(=O)N(c2ccc(C(F)(F)F)c(F)c2)C[C@@H]3C)ccn1 [Co. No. 130]
172.8 °C | 109% | 3.31e-09 M | Cc1cncc(C(=O)Nc2cnn3c2C(=O)N(c2ccc(C(F)(F)F)c(Cl)c2)C[C@@H]3C)c1C [Co. No. 133]
97.9 °C | 108% | 2.29e-09 M | Cc1c(F)cncc1C(=O)Nc1cnn2c1C(=O)N(c1ccc(C(F)(F)F)c(Cl)c1)C[C@@H]2C [Co. No. 135]
89.55 °C | 106% | 2.45e-08 M | Cc1c(F)cncc1C(=O)Nc1cnn2c1C(=O)N(c1ccc(C(F)(F)F)cc1)C[C@@H]2C [Co. No. 136]
153.4 °C | 106% | 1.74e-08 M | COc1cncc(C(=O)Nc2cnn3c2C(=O)N(c2ccc(Cl)cc2)C[C@@H]3C)c1 [Co. No. 137]
149.93 °C | 106% | 2.95e-08 M | COCc1cncc(C(=O)Nc2cnn3c2C(=O)N(c2ccc(C(F)(F)F)cc2)C[C@@H]3C)c1 [Co. No. 138]
170.75 °C | 108% | 3.02e-09 M | COCc1cncc(C(=O)Nc2cnn3c2C(=O)N(c2ccc(C(F)(F)F)c(Cl)c2)C[C@@H]3C)c1 [Co. No. 139]

The remaining lines, values behind:

Compound | melting point | Emax (human mGlu2 receptor) | IC50 (human mGlu2 receptor)
COc1cc(C(=O)Nc2cnn3c2C(=O)N(c2ccc(C(F)(F)F)cc2)C[C@@H]3C)ccc1F [Co. No. 51] | 140.98 °C | 113% | 1.45e-08 M
Cc1ccc(C(=O)Nc2cnn3c2C(=O)N(c2ccc(C(F)(F)F)cc2)C[C@@H]3C)cc1 [Co. No. 53] | 198.98 °C | 104% | 1.78e-08 M
Cc1ccc(C(=O)Nc2cnn3c2C(=O)N(c2ccc(C(F)(F)F)cc2)C[C@@H]3C)cn1 [Co. No. 54] | 175.17 °C | 104% | 1.78e-08 M
C[C@H]1CN(c2ccc(C(F)(F)F)cc2)C(=O)c2c(NC(=O)c3ccncc3)cnn21 [Co. No. 55] | 145.26 °C | 105% | 2e-08 M
COc1cccc(C(=O)Nc2cnn3c2C(=O)N(c2ccc(C(F)(F)F)c(OC)n2)C[C@@H]3C)c1 [Co. No. 56] | 160.66 °C | 107% | 2.04e-08 M
Cc1cccnc1C(=O)Nc1cnn2c1C(=O)N(c1ccc(C(F)(F)F)cc1)C[C@@H]2C [Co. No. 57] | 292.16 °C | 103% | 2.04e-08 M
COc1cc(F)ccc1C(=O)Nc1cnn2c1C(=O)N(c1ccc(C(F)(F)F)cc1)C[C@@H]2C [Co. No. 58] | 240.77 °C | 101% | 2.19e-08 M
COc1cccc(C(=O)Nc2cnn3c2C(=O)N(c2ccc(C(F)(F)F)cc2)C[C@@H]3C)c1F [Co. No. 59] | 205.32 °C | 110% | 2.24e-08 M
COc1ccnc(C(=O)Nc2cnn3c2C(=O)N(c2ccc(C(F)(F)F)cc2)C[C@@H]3C)c1 [Co. No. 60] | 227.69 °C | 111% | 2.45e-08 M
C[C@H]1CN(c2ccc(C(F)(F)F)cn2)C(=O)c2c(NC(=O)c3ccc(N)nc3)cnn21 [Co. No. 61] | 223.46 °C | 103% | 2.45e-08 M
C[C@H]1CN(c2ccc(C(F)(F)F)cc2)C(=O)c2c(NC(=O)c3ncco3)cnn21 [Co. No. 63, N-[(7S)-7-Methyl-4-oxo-5-[4-(trifluoromethyl)phenyl]-6,7-dihydropyrazolo[1,5-a]pyrazin-3-yl]oxazole-2-carboxamide] | 204.97 °C | 109% | 2.63e-08 M
Cc1ncccc1C(=O)Nc1cnn2c1C(=O)N(c1ccc(C(F)(F)F)cc1)C[C@@H]2C [Co. No. 66] | 120.37 °C | 104% | 2.75e-08 M
C[C@H]1CN(c2ccc(C(F)(F)F)cc2)C(=O)c2c(NC(=O)c3ccc(N)cn3)cnn21 [Co. No. 68, 5-Amino-N-[(7S)-7-methyl-4-oxo-5-[4-(trifluoromethyl)phenyl]-6,7-dihydropyrazolo[1,5-a]pyrazin-3-yl]pyridine-2-carboxamide] | 289.4 °C | 107% | 2.82e-08 M
COc1nc(N2C[C@H](C)n3ncc(NC(=O)c4ccccc4)c3C2=O)ccc1C(F)(F)F [Co. No. 70] | 201.06 °C | 108% | 3.8e-08 M
Cc1cc(C(=O)Nc2cnn3c2C(=O)N(c2ccc(C(F)(F)F)cc2)C[C@@H]3C)on1 [Co. No. 71] | 243.14 °C | 97% | 3.8e-08 M
Cc1cc(C(=O)Nc2cnn3c2C(=O)N(c2ccc(C(F)(F)F)cc2)C[C@@H]3C)no1 [Co. No. 72] | 209.27 °C | 99% | 4.27e-08 M
C[C@H]1CN(c2ccc(C(F)(F)F)cc2)C(=O)c2c(NC(=O)CC3CC3)cnn21 [Co. No. 73] | 152.2 °C | 98% | 4.79e-08 M
C[C@H]1CN(c2ccc(C(F)(F)F)cc2)C(=O)c2c(NC(=O)c3cnc(N)s3)cnn21 [Co. No. 74, 2-Amino-N-[(7S)-7-methyl-4-oxo-5-[4-(trifluoromethyl)phenyl]-6,7-dihydropyrazolo[1,5-a]pyrazin-3-yl]thiazole-5-carboxamide] | 283.48 °C | 113% | 3.39e-08 M
COc1ccccc1C(=O)Nc1cnn2c1C(=O)N(c1ccc(C(F)(F)F)c(OC)n1)C[C@@H]2C [Co. No. 75] | 231.11 °C | 103% | 5.37e-08 M
COc1nc(N2C[C@H](C)n3ncc(NC(=O)c4ccccc4)c3C2=O)ccc1Cl [Co. No. 76, N-[(7S)-5-(5-Chloro-6-methoxy-2-pyridyl)-7-methyl-4-oxo-6,7-dihydropyrazolo[1,5-a]pyrazin-3-yl]benzamide] | 188.77 °C | 106% | 5.89e-08 M
COc1ccc(C(=O)Nc2cnn3c2C(=O)N(c2ccc(C(F)(F)F)c(OC)n2)C[C@@H]3C)cc1 [Co. No. 77] | 194.9 °C | 103% | 7.76e-08 M
COCc1ccccc1C(=O)Nc1cnn2c1C(=O)N(c1ccc(C(F)(F)F)cc1)C[C@@H]2C [Co. No. 78] | 88.18 °C | 105% | 5.62e-08 M
C[C@H]1CN(c2ccc(C(F)(F)F)cc2)C(=O)c2c(NC(=O)c3cn[nH]c3)cnn21 [Co. No. 79] | 240.1 °C | 107% | 8.51e-08 M
C[C@H]1CN(c2ccc(C(F)(F)F)cc2)C(=O)c2c(NC(=O)c3ncc[nH]3)cnn21 [Co. No. 80] | 275.03 °C | 111% | 1e-07 M
Cc1nc(C(=O)Nc2cnn3c2C(=O)N(c2ccc(C(F)(F)F)cc2)C[C@@H]3C)co1 [Co. No. 81] | 189.92 °C | 103% | 1.02e-07 M

From patent publication US10519162B2, “6,7-dihydropyrazolo[1,5-α]pyrazin-4(5H)-one compounds and their use as negative allosteric modulators of mGluR2 receptors” (Janssen Pharmaceutica NV, priority 2014, dated 2019)
